Calls of active or inactive are those of the source. The rule behind the calls is not given here.
Legend:
[1] = system: MDA-MB-231; assay: Antiproliferative activity against human MDA-MB-231 cells assessed as inhibition of cell growth measured after 72 hrs by MTT assay; assay type: functional, cell-based; conditions: MDA-MB-231, 72 h
[2] = target: T1, Aldehyde dehydrogenase 1A1 (Homo sapiens, UniProt P00352); assay: Inhibition of ALDH1A1 in human drug-tolerant MDA-MB-231/lapatinib cells assessed as after 24 hrs
T1 sequence (P00352 whole entry): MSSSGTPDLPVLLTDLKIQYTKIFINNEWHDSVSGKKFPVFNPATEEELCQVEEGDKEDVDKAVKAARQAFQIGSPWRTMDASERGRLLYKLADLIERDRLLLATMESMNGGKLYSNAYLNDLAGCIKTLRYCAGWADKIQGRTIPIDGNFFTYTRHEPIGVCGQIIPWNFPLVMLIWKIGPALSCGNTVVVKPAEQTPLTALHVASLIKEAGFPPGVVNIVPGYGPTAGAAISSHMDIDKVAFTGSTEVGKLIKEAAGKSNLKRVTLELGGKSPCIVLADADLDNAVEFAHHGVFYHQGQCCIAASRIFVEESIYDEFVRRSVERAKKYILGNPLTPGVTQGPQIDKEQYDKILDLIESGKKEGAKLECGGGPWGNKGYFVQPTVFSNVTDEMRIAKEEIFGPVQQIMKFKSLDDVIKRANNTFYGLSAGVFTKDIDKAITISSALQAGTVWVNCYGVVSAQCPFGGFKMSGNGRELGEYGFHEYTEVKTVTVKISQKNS

[3] = Resistant factor, ratio of IC50 for antiproliferative activity against drug-tolerant human MDA-MB-231 cells to IC50 for human MDA-MB-231 cells; assay type: functional
[4] = system: MCF7; assay: Antiproliferative activity against human MCF7 cells assessed as inhibition of cell growth measured after 72 hrs by MTT assay; assay type: functional, cell-based; conditions: MCF7, 72 h
[5] = system: MDA-MB-231; assay: Antiproliferative activity against human drug tolerant MDA-MB-231/lapatinib cells assessed as inhibition of cell growth in measured after 72 hrs by MTT assay; assay type: functional, cell-based; conditions: MDA-MB-231, 72 h
[6] = system: HUVEC; assay: Antiproliferative activity against human HUVEC cells assessed as inhibition of cell growth in measured after 72 hrs by MTT assay; assay type: cell-based
[7] = system: MDA-MB-231; assay: Inhibition of Wnt/beta-Catenin signaling in drug-tolerant human MDA-MB-231/lapatinib cells assessed as reduction in p-GSK3beta level at 20 uM incubated for 24 hrs by Western blot analysis
[8] = system: MDA-MB-231; assay: Antiproliferative activity against drug-tolerant human MDA-MB-231/lapatinib cells assessed as CD44-positive cells measured after 24 hrs by MTT assay; assay type: functional, cell-based; conditions: MDA-MB-231, 24 h
[9] = system: MDA-MB-231; assay: Inhibition of cell migration in human drug-tolerant MDA-MB-231/lapatinib cells at 20 uM; assay type: functional
[10] = system: MDA-MB-231; assay: Inhibition of Wnt/beta-Catenin signaling in drug-tolerant human MDA-MB-231/lapatinib cells assessed as reduction in beta-catenin level at 20 uM incubated for 24 hrs by Western blot analysis
[11] = system: MDA-MB-231; assay: Antiproliferative activity against drug-tolerant human MDA-MB-231/lapatinib cells assessed as CD44+/CD24- cells measured at 20 uM after 24 hrs by MTT assay; assay type: functional

| Structure (SMILES) | IC50 [1] [µM] | IC50 [2] [µM] | Ratio IC50 [3] | IC50 [4] [µM] | IC50 [5] [µM] | IC50 [6] [µM] | inhibition [7] | IC50 [8] [µM] | inhibition at 20 µM [9] [%] | inhibition [10] | inhibition at 20 µM [11] [%] |
| --- | --- | --- | --- | --- | --- | --- | --- | --- | --- | --- | --- |
| CC(=O)c1cc2c(o1)C(=O)c1ccccc1C2=O [NAPABUCASIN] | 11 | 0.425 | 0.88 | 11.4 | 9.68 | 41.3 |  |  |  |  |  |
| CS(=O)(=O)CCNCc1ccc(-c2ccc3ncnc(Nc4ccc(OCc5cccc(F)c5)c(Cl)c4)c3c2)o1 [LAPATINIB] | 5.86 |  |  | 12.6 | 29.4 | 47.3 | Active | 30.8 | 52.6 | Active | 15.7 |
| CS(=O)(=O)CCN(Cc1ccc(-c2ccc3ncnc(Nc4ccc(OCc5cccc(F)c5)c(Cl)c4)c3c2)o1)C(=O)CCCC(=O)OCCN1CCN(CCCN2c3ccccc3Sc3ccc(C(F)(F)F)cc32)CC1 | 6.58 |  | 1.08 | 9.16 | 7.12 | 43.4 |  |  |  |  |  |
| CS(=O)(=O)CCN(Cc1ccc(-c2ccc3ncnc(Nc4ccc(OCc5cccc(F)c5)c(Cl)c4)c3c2)o1)C(=O)CCCC(=O)OCCN1CCN(CCCN2c3ccccc3Sc3ccc(Cl)cc32)CC1 | 4.51 |  | 1.27 | 7.38 | 5.74 | 100 |  |  |  |  |  |
| OCCN1CCN(CCCN2c3ccccc3Sc3ccc(C(F)(F)F)cc32)CC1 [FLUPHENAZINE] | 16.7 |  | 0.86 | 24.6 | 18.6 | 38 |  |  |  |  |  |

From ChEMBL document CHEMBL5030535, “Conjugates Derived from Lapatinib Derivatives with Cancer Cell Stemness Inhibitors Effectively Reversed Drug Resistance in Triple-Negative Breast Cancer” (J Med Chem, 2021)
